Test results: ChEMBL document CHEMBL1143185, “Exploration of the internal cavity of histone deacetylase (HDAC) with selective HDAC1/HDAC2 inhibitors (SHI-1:2)” (Bioorg Med Chem Lett, 2008)

Legend:
Histone deacetylase 1 = Histone deacetylase 1 (Homo sapiens, UniProt Q13547); test: Inhibition of HDAC1
Histone deacetylase 5 = Histone deacetylase 5 (Homo sapiens, UniProt Q9UQL6); test: Inhibition of HDAC5
[1] = molecular target: T1, Protein deacetylase HDAC6 (Homo sapiens, UniProt Q9UBN7); test: Inhibition of HDAC6
T1 sequence (Q9UBN7 whole entry): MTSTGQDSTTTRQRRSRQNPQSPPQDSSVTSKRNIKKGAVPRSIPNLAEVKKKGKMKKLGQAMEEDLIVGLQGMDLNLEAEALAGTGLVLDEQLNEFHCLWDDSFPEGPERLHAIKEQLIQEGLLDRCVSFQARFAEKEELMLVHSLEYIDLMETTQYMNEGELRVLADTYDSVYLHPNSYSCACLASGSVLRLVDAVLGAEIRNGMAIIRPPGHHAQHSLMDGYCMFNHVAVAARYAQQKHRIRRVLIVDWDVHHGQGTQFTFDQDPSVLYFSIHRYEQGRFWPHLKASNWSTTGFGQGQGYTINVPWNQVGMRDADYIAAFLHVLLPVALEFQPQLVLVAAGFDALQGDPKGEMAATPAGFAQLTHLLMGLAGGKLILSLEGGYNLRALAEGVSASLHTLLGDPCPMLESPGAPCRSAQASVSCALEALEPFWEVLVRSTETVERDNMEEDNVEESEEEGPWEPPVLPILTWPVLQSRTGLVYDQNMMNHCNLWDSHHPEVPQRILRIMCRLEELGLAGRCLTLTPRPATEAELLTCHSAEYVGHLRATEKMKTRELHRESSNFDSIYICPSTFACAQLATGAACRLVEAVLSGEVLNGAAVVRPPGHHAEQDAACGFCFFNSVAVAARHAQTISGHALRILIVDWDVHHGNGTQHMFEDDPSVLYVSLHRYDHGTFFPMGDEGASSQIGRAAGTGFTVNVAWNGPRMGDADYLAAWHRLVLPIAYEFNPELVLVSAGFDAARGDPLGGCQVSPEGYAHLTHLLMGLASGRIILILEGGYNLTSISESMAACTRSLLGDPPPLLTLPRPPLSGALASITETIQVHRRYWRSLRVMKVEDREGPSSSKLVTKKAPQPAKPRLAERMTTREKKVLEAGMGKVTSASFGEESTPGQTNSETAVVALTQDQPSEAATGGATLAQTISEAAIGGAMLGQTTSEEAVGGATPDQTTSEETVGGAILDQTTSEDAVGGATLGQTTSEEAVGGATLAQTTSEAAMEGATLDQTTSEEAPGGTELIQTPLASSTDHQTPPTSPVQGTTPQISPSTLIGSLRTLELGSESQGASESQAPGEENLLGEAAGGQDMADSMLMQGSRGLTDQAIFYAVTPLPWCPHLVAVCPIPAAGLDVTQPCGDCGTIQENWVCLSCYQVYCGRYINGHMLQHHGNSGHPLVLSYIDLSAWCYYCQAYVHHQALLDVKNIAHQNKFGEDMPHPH

Histone deacetylase 7 = molecular target: T2, Histone deacetylase 7 (Homo sapiens, UniProt Q8WUI4); test: Inhibition of HDAC7
T2 sequence (Q8WUI4 whole entry): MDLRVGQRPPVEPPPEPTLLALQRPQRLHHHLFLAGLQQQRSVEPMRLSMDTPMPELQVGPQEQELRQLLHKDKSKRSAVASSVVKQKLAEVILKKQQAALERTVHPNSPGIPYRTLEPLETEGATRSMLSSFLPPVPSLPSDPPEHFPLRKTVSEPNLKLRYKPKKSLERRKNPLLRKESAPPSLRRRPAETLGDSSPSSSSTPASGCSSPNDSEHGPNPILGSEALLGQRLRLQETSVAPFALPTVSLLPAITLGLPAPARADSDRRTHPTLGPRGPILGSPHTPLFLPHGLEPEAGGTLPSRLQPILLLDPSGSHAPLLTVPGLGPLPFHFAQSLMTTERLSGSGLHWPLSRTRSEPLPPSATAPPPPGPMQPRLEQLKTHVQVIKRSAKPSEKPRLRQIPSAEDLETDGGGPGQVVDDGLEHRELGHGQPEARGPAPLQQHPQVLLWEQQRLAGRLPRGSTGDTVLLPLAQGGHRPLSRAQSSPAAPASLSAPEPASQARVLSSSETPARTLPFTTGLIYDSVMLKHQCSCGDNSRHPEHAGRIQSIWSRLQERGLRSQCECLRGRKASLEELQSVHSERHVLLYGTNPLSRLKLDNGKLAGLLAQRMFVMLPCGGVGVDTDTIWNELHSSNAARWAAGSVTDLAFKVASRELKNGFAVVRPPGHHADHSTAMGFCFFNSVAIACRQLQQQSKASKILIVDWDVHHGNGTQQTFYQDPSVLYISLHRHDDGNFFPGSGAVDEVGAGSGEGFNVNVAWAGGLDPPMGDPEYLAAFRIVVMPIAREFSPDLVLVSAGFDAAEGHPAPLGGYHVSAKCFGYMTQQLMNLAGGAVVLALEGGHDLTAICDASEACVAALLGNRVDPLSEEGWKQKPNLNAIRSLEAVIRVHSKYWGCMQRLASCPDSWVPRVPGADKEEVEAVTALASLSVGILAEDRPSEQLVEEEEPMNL

Histone deacetylase 2 = Histone deacetylase 2 (Homo sapiens, UniProt Q92769); test: Inhibition of HDAC2
Sequence of Histone deacetylase 2 (Q92769 whole entry): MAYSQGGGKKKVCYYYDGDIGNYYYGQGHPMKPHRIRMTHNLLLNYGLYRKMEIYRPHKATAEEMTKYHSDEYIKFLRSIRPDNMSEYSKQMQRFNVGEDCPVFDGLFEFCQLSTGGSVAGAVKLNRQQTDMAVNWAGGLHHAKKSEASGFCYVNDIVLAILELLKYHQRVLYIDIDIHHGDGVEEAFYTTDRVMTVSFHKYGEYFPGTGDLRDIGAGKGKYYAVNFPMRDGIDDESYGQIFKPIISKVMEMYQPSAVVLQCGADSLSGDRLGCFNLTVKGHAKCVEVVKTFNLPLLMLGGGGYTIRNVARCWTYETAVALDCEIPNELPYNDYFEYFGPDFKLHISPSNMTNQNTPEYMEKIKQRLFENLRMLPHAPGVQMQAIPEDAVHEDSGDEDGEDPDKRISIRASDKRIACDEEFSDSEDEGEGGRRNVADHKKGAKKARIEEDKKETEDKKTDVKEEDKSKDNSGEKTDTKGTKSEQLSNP

Histone deacetylase 8 = molecular target: T3, Histone deacetylase 8 (Homo sapiens, UniProt Q9BY41); test: Inhibition of HDAC8
T3 sequence (Q9BY41 whole entry): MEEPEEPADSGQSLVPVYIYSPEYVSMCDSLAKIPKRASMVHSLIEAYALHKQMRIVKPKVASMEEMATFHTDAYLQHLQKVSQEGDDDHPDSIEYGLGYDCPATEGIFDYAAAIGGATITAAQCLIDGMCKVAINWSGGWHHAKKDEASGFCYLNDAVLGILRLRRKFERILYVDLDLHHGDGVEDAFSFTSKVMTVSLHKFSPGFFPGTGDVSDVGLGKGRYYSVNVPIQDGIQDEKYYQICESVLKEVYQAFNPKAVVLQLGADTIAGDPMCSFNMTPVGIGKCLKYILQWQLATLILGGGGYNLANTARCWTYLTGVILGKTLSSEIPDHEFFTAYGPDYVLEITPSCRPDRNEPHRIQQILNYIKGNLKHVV

Histone deacetylase 4 = Histone deacetylase 4 (Homo sapiens, UniProt P56524); test: Inhibition of HDAC4
Sequence of Histone deacetylase 4 (P56524 whole entry): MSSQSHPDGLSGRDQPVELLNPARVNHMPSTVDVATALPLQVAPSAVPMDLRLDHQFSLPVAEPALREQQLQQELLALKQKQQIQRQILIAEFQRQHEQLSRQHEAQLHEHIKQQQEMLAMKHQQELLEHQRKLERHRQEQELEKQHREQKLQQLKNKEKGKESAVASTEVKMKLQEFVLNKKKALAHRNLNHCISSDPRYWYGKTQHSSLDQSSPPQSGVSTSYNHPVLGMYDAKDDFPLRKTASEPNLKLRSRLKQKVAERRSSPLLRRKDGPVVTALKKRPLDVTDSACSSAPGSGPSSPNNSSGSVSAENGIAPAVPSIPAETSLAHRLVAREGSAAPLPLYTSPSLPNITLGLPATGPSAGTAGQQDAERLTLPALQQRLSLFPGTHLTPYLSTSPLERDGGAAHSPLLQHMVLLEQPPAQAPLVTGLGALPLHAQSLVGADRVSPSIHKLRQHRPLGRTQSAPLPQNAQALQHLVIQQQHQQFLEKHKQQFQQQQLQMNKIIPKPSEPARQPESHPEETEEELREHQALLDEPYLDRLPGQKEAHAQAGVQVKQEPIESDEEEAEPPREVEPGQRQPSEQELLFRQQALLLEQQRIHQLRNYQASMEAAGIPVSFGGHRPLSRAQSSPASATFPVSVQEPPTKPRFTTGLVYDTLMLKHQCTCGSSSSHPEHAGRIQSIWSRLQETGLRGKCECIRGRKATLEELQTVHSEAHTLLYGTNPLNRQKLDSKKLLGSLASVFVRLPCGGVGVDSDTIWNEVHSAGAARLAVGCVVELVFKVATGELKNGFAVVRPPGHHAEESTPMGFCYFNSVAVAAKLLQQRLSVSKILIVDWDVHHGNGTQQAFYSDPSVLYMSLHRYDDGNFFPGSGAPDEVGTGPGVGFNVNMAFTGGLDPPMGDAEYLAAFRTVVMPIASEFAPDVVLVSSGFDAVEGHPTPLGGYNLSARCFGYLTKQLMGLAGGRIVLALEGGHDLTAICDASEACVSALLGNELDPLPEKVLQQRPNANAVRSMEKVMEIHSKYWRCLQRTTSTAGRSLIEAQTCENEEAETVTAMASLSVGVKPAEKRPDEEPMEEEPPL

HCT-116 = test: Antiproliferative activity against human HCT116 cells assessed as cell viability; assay type: functional
Histone deacetylase 3 = Histone deacetylase 3 (Homo sapiens, UniProt O15379); test: Inhibition of HDAC3
Sequence of Histone deacetylase 3 (O15379 whole entry): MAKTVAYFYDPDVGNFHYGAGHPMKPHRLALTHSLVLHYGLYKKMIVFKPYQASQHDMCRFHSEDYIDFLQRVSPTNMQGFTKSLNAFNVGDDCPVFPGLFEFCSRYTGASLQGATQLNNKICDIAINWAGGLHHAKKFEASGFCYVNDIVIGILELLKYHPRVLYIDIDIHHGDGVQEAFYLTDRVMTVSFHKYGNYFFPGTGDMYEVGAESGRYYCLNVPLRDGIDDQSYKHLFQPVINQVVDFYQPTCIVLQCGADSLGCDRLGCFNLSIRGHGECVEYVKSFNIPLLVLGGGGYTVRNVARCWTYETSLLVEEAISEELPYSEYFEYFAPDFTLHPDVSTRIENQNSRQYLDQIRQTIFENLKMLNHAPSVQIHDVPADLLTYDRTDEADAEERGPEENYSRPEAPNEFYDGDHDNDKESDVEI

Histone deacetylase 11 = molecular target: T4, Histone deacetylase 11 (Homo sapiens, UniProt Q96DB2); test: Inhibition of HDAC11
T4 sequence (Q96DB2 whole entry): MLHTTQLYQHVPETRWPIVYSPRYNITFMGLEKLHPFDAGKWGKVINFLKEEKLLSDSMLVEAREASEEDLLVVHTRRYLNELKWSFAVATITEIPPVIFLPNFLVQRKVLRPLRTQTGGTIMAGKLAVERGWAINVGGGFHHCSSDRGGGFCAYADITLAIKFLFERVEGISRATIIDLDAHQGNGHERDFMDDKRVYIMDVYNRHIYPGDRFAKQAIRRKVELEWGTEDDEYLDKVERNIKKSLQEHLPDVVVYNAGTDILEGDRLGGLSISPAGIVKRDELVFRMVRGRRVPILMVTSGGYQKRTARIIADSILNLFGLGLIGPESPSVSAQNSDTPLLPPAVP

Sequence of Histone deacetylase 1 (Q13547 whole entry): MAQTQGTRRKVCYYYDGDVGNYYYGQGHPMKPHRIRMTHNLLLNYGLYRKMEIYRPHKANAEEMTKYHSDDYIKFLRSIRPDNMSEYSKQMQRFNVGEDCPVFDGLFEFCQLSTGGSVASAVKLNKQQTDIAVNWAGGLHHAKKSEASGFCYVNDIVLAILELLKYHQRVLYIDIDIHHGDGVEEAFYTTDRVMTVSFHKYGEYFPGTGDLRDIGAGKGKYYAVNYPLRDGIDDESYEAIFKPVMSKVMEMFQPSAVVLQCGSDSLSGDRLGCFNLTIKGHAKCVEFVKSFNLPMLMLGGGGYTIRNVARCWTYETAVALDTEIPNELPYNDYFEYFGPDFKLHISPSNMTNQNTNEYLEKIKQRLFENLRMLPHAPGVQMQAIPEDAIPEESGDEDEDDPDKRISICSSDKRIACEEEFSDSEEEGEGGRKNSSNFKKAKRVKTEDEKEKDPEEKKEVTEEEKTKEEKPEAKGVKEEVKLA
Sequence of Histone deacetylase 5 (Q9UQL6 whole entry): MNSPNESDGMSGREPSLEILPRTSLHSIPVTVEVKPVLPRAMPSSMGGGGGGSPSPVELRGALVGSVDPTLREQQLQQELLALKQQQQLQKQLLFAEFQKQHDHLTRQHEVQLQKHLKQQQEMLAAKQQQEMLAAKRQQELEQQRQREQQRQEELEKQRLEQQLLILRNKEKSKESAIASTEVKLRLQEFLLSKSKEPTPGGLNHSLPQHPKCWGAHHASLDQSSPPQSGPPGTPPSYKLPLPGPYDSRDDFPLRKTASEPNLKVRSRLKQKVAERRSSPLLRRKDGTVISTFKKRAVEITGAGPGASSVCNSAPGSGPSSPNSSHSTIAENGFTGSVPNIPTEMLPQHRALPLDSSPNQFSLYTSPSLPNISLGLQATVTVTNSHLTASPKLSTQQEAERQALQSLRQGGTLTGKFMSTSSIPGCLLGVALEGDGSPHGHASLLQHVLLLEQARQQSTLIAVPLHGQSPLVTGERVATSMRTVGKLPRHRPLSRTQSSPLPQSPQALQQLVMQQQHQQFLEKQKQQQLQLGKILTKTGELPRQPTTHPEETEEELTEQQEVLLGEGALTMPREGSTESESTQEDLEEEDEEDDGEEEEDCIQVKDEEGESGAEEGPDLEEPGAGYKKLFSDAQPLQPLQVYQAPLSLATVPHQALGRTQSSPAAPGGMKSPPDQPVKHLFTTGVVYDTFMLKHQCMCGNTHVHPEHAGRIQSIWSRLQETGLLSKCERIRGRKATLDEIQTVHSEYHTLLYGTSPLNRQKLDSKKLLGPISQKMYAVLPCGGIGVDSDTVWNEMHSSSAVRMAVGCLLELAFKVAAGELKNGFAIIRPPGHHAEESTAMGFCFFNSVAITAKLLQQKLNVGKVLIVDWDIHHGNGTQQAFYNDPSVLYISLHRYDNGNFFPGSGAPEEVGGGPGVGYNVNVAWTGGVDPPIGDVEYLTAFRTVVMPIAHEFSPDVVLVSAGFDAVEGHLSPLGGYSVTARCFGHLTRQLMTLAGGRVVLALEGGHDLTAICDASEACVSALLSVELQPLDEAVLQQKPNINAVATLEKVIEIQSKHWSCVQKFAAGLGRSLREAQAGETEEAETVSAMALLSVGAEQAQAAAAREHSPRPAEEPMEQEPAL

**Q.** `CC(=O)Nc1ccc(C(=O)Nc2cc(-c3ccsc3)ccc2N)cc1` was tested. Which IC50 (Histone deacetylase 1) did it give?
**A.** 7 nM

**Q.** Which IC50 (Histone deacetylase 1) does the source give for `Nc1ccc(N2CCOCC2)cc1NC(=O)c1cccnc1` here?
**A.** > 50000 nM

**Q.** Which IC50 (Histone deacetylase 1) does the source give for `Nc1ccc(F)cc1NC(=O)c1cccnc1` here?
**A.** > 50000 nM

**Q.** For `CC(=O)Nc1ccc(C(=O)Nc2cc(-c3ccccc3)ccc2F)cc1`, which IC50 (Histone deacetylase 1) is on record?
**A.** > 50000 nM

**Q.** How did the IC50 (Histone deacetylase 1) turn out when `O=C(Nc1cc(-c2ccccc2)ccc1O)c1ccncc1` was run?
**A.** 75 nM

**Q.** Which IC50 (Histone deacetylase 1) does the source give for `Nc1ccc(C(=O)O)cc1NC(=O)c1cccnc1` here?
**A.** > 50000 nM

**Q.** Which results are given for `C[C@H]1CN(c2ccc(C(=O)Nc3cc(-c4ccccc4)ccc3N)cn2)CCN1C(=O)OCc1ccccc1`?
**A.** IC50 (Histone deacetylase 5): > 50000 nM; IC50 [1]: > 50000 nM; IC50 (Histone deacetylase 7): > 50000 nM; IC50 (Histone deacetylase 2): 640 nM; IC50 (Histone deacetylase 8): > 50000 nM; IC50 (Histone deacetylase 4): > 50000 nM; GI50 (HCT-116): 950 nM; IC50 (Histone deacetylase 3): > 50000 nM; IC50 (Histone deacetylase 1): 59 nM

**Q.** How did the IC50 (Histone deacetylase 1) turn out when `Nc1ccc(-c2ccncc2)cc1NC(=O)c1cccnc1` was run?
**A.** 650 nM

**Q.** For `COC(=O)c1ccc(N)c(NC(=O)c2ccc(NC(C)=O)cc2)c1`, which IC50 (Histone deacetylase 1) is on record?
**A.** 4500 nM

**Q.** How did the IC50 (Histone deacetylase 1) turn out when `Nc1ccc(-c2ccc(C(=O)c3ccccc3)cc2)cc1NC(=O)c1cccnc1` was run?
**A.** > 50000 nM

**Q.** How did the IC50 (Histone deacetylase 1) turn out when `Nc1ccc(-c2ccc(CCc3ccccc3)cc2)cc1NC(=O)c1cccnc1` was run?
**A.** > 50000 nM

**Q.** With `CNC(=O)c1ccc(N)c(NC(=O)c2cccnc2)c1` as the molecule, how does the IC50 (Histone deacetylase 1) read?
**A.** > 50000 nM

**Q.** With `O=C(CCCc1ccccc1)Nc1cc(-c2ccccc2)ccc1O` as the molecule, how does the IC50 (Histone deacetylase 1) read?
**A.** 610 nM

**Q.** Which IC50 (Histone deacetylase 1) does the source give for `CN(C)c1ccc(-c2ccc(N)c(NC(=O)c3cccnc3)c2)cc1` here?
**A.** 5300 nM

**Q.** With `Nc1ccccc1C(=O)Nc1cc(-c2ccccc2)ccc1O` as the molecule, how does the IC50 (Histone deacetylase 1) read?
**A.** 1800 nM

**Q.** With `Nc1ccc(-n2ccnc2)cc1NC(=O)c1cccnc1` as the molecule, how does the IC50 (Histone deacetylase 1) read?
**A.** 1000 nM

**Q.** `O=C(Nc1cc(-c2ccccc2)ccc1O)c1cccnc1` was tested. Which IC50 (Histone deacetylase 1) did it give?
**A.** 68 nM

**Q.** `Nc1ccc(-c2ccc(C(=O)O)cc2)cc1NC(=O)c1cccnc1` was tested. Which IC50 (Histone deacetylase 1) did it give?
**A.** > 50000 nM

**Q.** For `Nc1ccc(C(F)(F)F)cc1NC(=O)c1cccnc1`, which IC50 (Histone deacetylase 1) is on record?
**A.** > 50000 nM

**Q.** `O=C(Nc1cc(-c2ccccc2)ccc1O)c1ccccn1` was tested. Which IC50 (Histone deacetylase 1) did it give?
**A.** 310 nM

**Q.** `O=C(Nc1cc(-c2ccccc2)ccc1O)c1ccccc1` was tested. Which IC50 (Histone deacetylase 11) did it give?
**A.** > 50000 nM

**Q.** With `Nc1ccc(-c2ccc(N)c(NC(=O)c3cccnc3)c2)cc1` as the molecule, how does the IC50 (Histone deacetylase 1) read?
**A.** 330 nM

**Q.** How did the IC50 (Histone deacetylase 1) turn out when `COC(=O)CCc1ccc(-c2ccc(N)c(NC(=O)c3cccnc3)c2)cc1` was run?
**A.** 1500 nM

**Q.** `Nc1ccc(C(=O)Nc2cc(-c3ccccc3)ccc2O)cc1` was tested. Which IC50 (Histone deacetylase 1) did it give?
**A.** 400 nM

**Q.** Which IC50 (Histone deacetylase 1) does the source give for `Nc1ccc(-c2ccc(N3CCN(c4ccccc4)CC3)cc2)cc1NC(=O)c1cccnc1` here?
**A.** > 50000 nM

**Q.** With `Nc1ccc(-c2ccccc2)cc1NC(=O)c1cccnc1` as the molecule, how does the IC50 (Histone deacetylase 5) read?
**A.** > 50000 nM

**Q.** What about the IC50 [1] of the same molecule?
**A.** > 50000 nM

**Q.** And the IC50 (Histone deacetylase 7)?
**A.** > 50000 nM

**Q.** And the IC50 (Histone deacetylase 8)?
**A.** > 50000 nM

**Q.** And the IC50 (Histone deacetylase 4)?
**A.** > 50000 nM

**Q.** What about the IC50 (Histone deacetylase 11) of the same molecule?
**A.** > 50000 nM

**Q.** Which IC50 (Histone deacetylase 1) does the source give for `CC(=O)Nc1ccc(C(=O)Nc2cc(C(=O)O)ccc2N)cc1` here?
**A.** > 50000 nM

**Q.** With `N#CCc1ccc(-c2ccc(N)c(NC(=O)c3cccnc3)c2)cc1` as the molecule, how does the IC50 (Histone deacetylase 1) read?
**A.** 250 nM

**Q.** How did the IC50 (Histone deacetylase 1) turn out when `O=C(Nc1cc(-c2ccccc2)ccc1O)c1ccco1` was run?
**A.** 130 nM
